The text below walks through data of patent US20220288091A1, “Method for Improving Insulin Sensitivity” (priority 2019, published 2022).

The nature of data set [1]: Adverse events and safety laboratory monitoring. It is filed as in vivo, human. To be noted: 50 mg every 6 hours for 9 days. As for the experimental part:
All subjects were instructed to record any adverse effects and to report them to study personnel, and women were advised to keep a record of any abnormal menstrual bleeding. For proper safety monitoring, subjects returned approximately one week (day 19) and three weeks (day 33) after the discontinuation of the study drug for both treatment arms. During this safety visit, serum electrolytes, renal and liver function, and complete blood count were measured, as well as evaluation and treatment for potential treatment-related abnormalities/adverse events.

Data set [2] concerns hypothalamic-pituitary-adrenal axis. As to the kind of experiment: 24-hour urinary free cortisol (UFC). It counts as in vivo, human. The conditions noted are these: 50 mg every 6 hours for 9 days; for Urinary Free Cortisol (24-hour UFC): mean±SD, n=16, normal 3.5-45. From the text: Urine cortisol and other surrogate biochemical markers of HPA activation: This includes all tests currently available or subsequently developed that may be used to evaluate the effects of GRA dose and schedule on the HPA axis. Normal 24-hour urine free cortisol (UFC) levels range from […] when measured in most tandem mass spectrometry assays. Values are higher when measured by immunoassays because of cross-reactivity with the antibodies used in those assays with other steroids that are structurally similar to cortisol. Measurement of UFC by tandem mass spectrometry is the preferred method to assess the effect of GRAs on the HPA axis for three reasons: 1. ease of collection, 2. specificity of the assay (it measures only cortisol) and 3. the well-established range of values seen in physiologic stress, or Pseudo-Cushing's syndrome, which is 1-3 times the upper limit of the normal reference range. However, other biochemical tests may be used as surrogate biochemical markers of the HPA axis, including, but not limited to measurement of serum or salivary cortisol at multiple time-points throughout a 24 hour period, including both the day and night, which is expressed as either the mean value or the area under the curve. Normal ranges for all cortisol assays and 24-hour assessments will vary depending on the assay technique, and reagents, and must be used based on locally-determined values, or values provided by the manufacturer of an assay kit. The results obtained from any of these assays are then used to determine whether the dosage of the one or more GR antagonists need to be adjusted upwards or downwards so as to maintain 24-hour serum or urinary free cortisol levels at no more than about two or three times the upper level of the normal range, respectively.
Initially, 19 subjects underwent randomization. […]
To reduce potential variability associated with estrogen in premenopausal women, testing was performed in the early follicular phase (days 1-7 of menstrual cycle). Baseline height and weight were measured after an overnight fast. […]

Molecules are shown by their SMILES.

For the compound `CC#C[C@]1(O)CC[C@H]2[C@@H]3CCC4=CC(=O)CCC4=C3[C@@H](c3ccc(N(C)C)cc3)C[C@@]21C` [Mifepristone, 11beta-[p-(dimethylamino)phenyl]-17alpha-(1-propynl)estra-4,9-dien-17beta-ol-3-one], in data set [1], the Serious adverse events entry is “No serious adverse events”. Also, the figures for the “Urinary Free Cortisol (24-hour UFC)” value in data set [2] and in data set [2] (listed as mifepristone) were 74.1 ± 75.3 μg/24 hr and 74.1±75.3 μg/24 hr, respectively. Further, the “Post-treatment mean UFC in the 8 subjects above the normal limit” value in data set [2] (subgroup of 8 subjects) amounted to 120.4±83.9 μg/24 hr.
